# In EP4650361A1, “ARGININE OPTICAL PROBE” (East China University of Science and Technology, priority 2023, dated 2024):
# pKd: −log10 of the molar value.
# Experiments:
# [1] = tested on: Salmonella Typhimurium arginine-binding protein STM4351 variant T138A with cpYFP inserted at the 200/203 site (STM4351-200/203-T138A-cpYFP), SEQ ID NO: 12; assay: Fluorescence response and titration of purified probe with arginine
# Method: (§1) • 1. Transform the pET28a-based arginine probe plasmid into BL21(DE3), culture overnight in an inverted manner, pick a clone from the plate into a 250 ml conical flask, place in a 37 °C shaker, culture at 220 rpm until OD = 0.4-0.8, add IPTG (1 M) at 1/1000 (v/v), and induce expression at 18 °C for 24-36 h. • 2. After induction expression, collect the bacteria by centrifugation at 4000 rpm for 30 minutes, add 50 mM phosphate buffer to resuspend the bacterial pellet, and ultrasonically disrupt until the bacteria are clarified. Centrifuge at 9600 rpm at 4 °C for 20 minutes. • 3. The centrifuged supernatant is purified by a self-assembled nickel column affinity chromatography column to obtain the protein, and the protein after nickel column affinity chromatography is then passed through a self-assembled desalting column to obtain the protein dissolved in 20 mM MOPS buffer (pH 7.4) or phosphate buffer PBS. • 4. The purified arginine-binding protein mutant protein is identified by SDS-PAGE, and the probe is diluted with assay buffer (100 mM HEPES, 100 mM NaCl, pH 7.3) or phosphate buffer PBS to a final concentration of 5-10 µM protein solution. […] Take 100 µl of 5 µM protein solution, incubate at 37 °C for 5 min, add arginine respectively and mix to a final concentration of 100 mM, and measure the light absorption of the protein at 340 nm using a multifunctional fluorescence microplate reader. • 6. Take 100 µl of 1 µM fluorescent probe solution, incubate at 37 °C for 5 min, add arginine for titration, and measure the fluorescence intensity of the protein at 528 nm emission after 485 nm fluorescence excitation. The measurement of fluorescence excitation and emission of samples is completed using a multifunctional fluorescence microplate reader. • 7. Take 100 µl of 1 µM fluorescent probe solution, incubate at 37 °C for 5 min, add arginine, and measure the absorption spectrum and fluorescence spectrum of the probe protein. The measurement of absorption spectrum and fluorescence spectrum of samples is completed by a spectrophotometer and a fluorescence spectrophotometer. […]
# [2] = tested on: Salmonella Typhimurium arginine-binding protein STM4351 variant D91A with cpYFP inserted at the 200/203 site (STM4351-200/203-D91A-cpYFP), SEQ ID NO: 9; assay: Fluorescence response of purified probe to arginine; conditions: signal with 100 mM arginine divided by signal without arginine, Figure 2
# Method: as §1
# [3] = tested on: Salmonella Typhimurium arginine-binding protein STM4351 variant H140A with cpYFP inserted at the 200/203 site (STM4351-200/203-H140A-cpYFP), SEQ ID NO: 14; assay: as above; conditions: signal with 100 mM arginine divided by signal without arginine, Figure 2
# Method: as §1
# [4] = tested on: Salmonella Typhimurium arginine-binding protein STM4351 variant T32A with cpYFP inserted at the 200/203 site (STM4351-200/203-T32A-cpYFP), SEQ ID NO: 4; assay: as above; conditions: signal with 100 mM arginine divided by signal without arginine, Figure 2
# Method: as §1
# [5] = tested on: Salmonella Typhimurium arginine-binding protein STM4351 variant G89A with cpYFP inserted at the 200/203 site (STM4351-200/203-G89A-cpYFP), SEQ ID NO: 7; assay: Fluorescence response and titration of purified probe with arginine
# Method: as §1, with “3.” for “3. The centrifuged supernatant is purified by a self-assembled nickel column affinity chromatography column to obtain the protein, and the protein after nickel column affinity chromatography is then passed through a self-assembled desalting column to obtain the protein dissolved in 20 mM MOPS buffer (pH 7.4) or phosphate buffer PBS. • 4. The purified arginine-binding protein mutant protein is identified by SDS-PAGE, and the probe is diluted with assay buffer (100 mM HEPES, 100 mM NaCl, pH 7.3) or phosphate buffer PBS to a final concentration of 5-10 µM protein solution.”, “protein.” for “protein. The measurement of absorption spectrum and fluorescence spectrum of samples is completed by a spectrophotometer and a fluorescence spectrophotometer.”
# [6] = tested on: Salmonella Typhimurium arginine-binding protein STM4351 variant E37A with cpYFP inserted at the 200/203 site (STM4351-200/203-E37A-cpYFP), SEQ ID NO: 5; assay: as above
# Method: • 1. Transform the pET28a-based arginine probe plasmid into BL21(DE3), culture overnight in an inverted manner, pick a clone from the plate into a 250 ml conical flask, place in a 37 °C shaker, culture at 220 rpm until OD = 0.4-0.8, add IPTG (1 M) at 1/1000 (v/v), and induce expression at 18 °C for 24-36 h. • 2. After induction expression, collect the bacteria by centrifugation at 4000 rpm for 30 minutes, add 50 mM phosphate buffer to resuspend the bacterial pellet, and ultrasonically disrupt until the bacteria are clarified. Centrifuge at 9600 rpm at 4 °C for 20 minutes. • 3. The centrifuged supernatant is purified by a self-assembled nickel column affinity chromatography column to obtain the protein, and the protein after nickel column affinity chromatography is then passed through a self-assembled desalting column to obtain the protein dissolved in 20 mM MOPS buffer (pH 7.4) or phosphate buffer PBS. • 4. The purified arginine-binding protein mutant protein is identified by SDS-PAGE, and the probe is diluted with assay buffer (100 mM HEPES, 100 mM NaCl, pH 7.3) or phosphate buffer PBS to a final concentration of 5-10 µM protein solution. Prepare arginine into a stock solution with a final concentration of 1 M using assay buffer (20 mM MOPS, pH 7.4) or phosphate buffer PBS. • 5. Take 100 µl of 5 µM protein solution, incubate at 37 °C for 5 min, add arginine respectively and mix to a final concentration of 100 mM, and measure the light absorption of the protein at 340 nm using a multifunctional fluorescence microplate reader. • 6. Take 100 µl of 1 µM fluorescent probe solution, incubate at 37 °C for 5 min, add arginine for titration, and measure the fluorescence intensity of the protein at 528 nm emission after 485 nm fluorescence excitation. The measurement of fluorescence excitation and emission of samples is completed using a multifunctional fluorescence microplate reader. • 7. Take 100 µl of 1 µM fluorescent probe solution, incubate at 37 °C for 5 min, add arginine, and measure the absorption spectrum and fluorescence spectrum of the probe protein. The measurement of absorption spectrum and fluorescence spectrum of samples is completed by a spectrophotometer and a fluorescence spectrophotometer.
# Screen the purified STM4351-cpYFP fusion protein for arginine response, and divide the detection signal of the fusion fluorescent protein containing 100 mM arginine by the detection signal of the fusion fluorescent protein without arginine. […]
# Purify the mutant STM4351-200/203-E37A-cpYFP with high response multiple and good specificity. […] Determination of emission spectrum: fix the excitation wavelengths at 420 nm and 485 nm respectively, record the emission spectrum at […]-540 nm, and read once every 5 nm.
# [7] = 500 mM arginine compared with 0 mM arginine, Figure 4
structure (smiles),measurement,setting,value
"N=C(N)NCCC[C@H](N)C(=O)O [arginine, Arginine]","response to arginine, response multiple","[1]; arginine titration, Figure 3",~3.14
same,pKd,"[1]; arginine titration, Figure 3, read-out: affinity for the substrate",3.72
same,response to arginine,"[1]; signal with 100 mM arginine divided by signal without arginine, Figure 2",exceeding 3 times
same,response to arginine,[2],exceeding 3 times
same,response to arginine,[3],exceeding 3 times
same,response to arginine,[4],exceeding 3 times
same,"response to arginine, response multiple",[5]; Figure 3,about 1.29
same,pKd,"[5]; Figure 3, read-out: affinity for the substrate",4.63
same,fluorescence intensity under 420 nm excitation,[6]; [7],basically unchanged
same,fluorescence intensity under 485 nm excitation,[6]; [7],about 15.0 times
same,response to arginine,"[6]; arginine titration, Figure 3",about 15 times
same,pKd,"[6]; arginine titration, Figure 3, saturation at 10 mM arginine, read-out: affinity for the substrate",3.68 to 3.77
